The values that follow are results of earlier work, collected in patent publication US8968755B2, “Topical base and active agent-containing compositions, and methods for improving and treating skin” (priority 2010, dated 2015).

Molecules are shown by their SMILES.

For `CCCCCCCCCCCCCCCCCCO` [Stearyl alcohol, 1-octadecanol], the solubility in water result is reported as “insoluble in water”.
